Test results published in US7612064B2, “Sulfopyrroles” (Takeda Pharmaceutical Company Limited, priority 2003, dated 2009).
pIC50: −log10 of the molar value.

Tests used:
MRC5 = assay: MTS proliferation assay; format: cell-based; details: MRC5, 72 h
Procedure, shortened: (§1)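 Compounds at final 10/3/1/0.3 μM (added in complete medium, ≤5% DMSO); 72 h, culture conditions; + MTS, 3 h; A492.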

Jily = assay: MTS proliferation assay; format: cell-based; details: 72 h
Procedure, shortened: as §1

[1] = Hoechst 33342 nuclear staining; format: cell-based; details: for Hoechst 33342 nuclear staining score, H460: H460 cells; for Hoechst 33342 nuclear staining score, HeLa: HeLa cells; for Hoechst 33342 nuclear staining score, Jily: Jily cells; for Hoechst 33342 nuclear staining score, Jurkat: Jurkat cells; for Hoechst 33342 nuclear staining score, MRC5: MRC5 cells; on Hoechst 33342 nuclear staining score, PBLs: key: 0: no activity; 1: weak activity comprising less than 50% of the cells; 2: strong activity comprising more than 50% of the cells;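 on all read-outs here: apoptotic nuclei scored 0 none 1 weak under 50% of cells 2 strong over 50% of cells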
Procedure, shortened: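 Cells were plated in 96 well tissue culture plates in 80 μl complete medium, with 3-5*10^3 cells per well for adherent lines and 8-10*10^3 for suspension lines. Adherent cells spread for 24 h before treatment, while suspension cells were treated right after seeding. Compounds were added in 20 μl complete medium containing max 5% DMSO.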

Jurkat = assay: MTS proliferation assay; format: cell-based, human; details: 72 h
Procedure, shortened: as §1

HeLa = assay: MTS proliferation assay; format: cell-based, human; details: 72 h
Procedure, shortened: as §1

SMILES	pIC50 (MRC5)	pIC50 (Jily)	Hoechst 33342 nuclear staining score, H460 ([1]; conc 0.1)	Hoechst 33342 nuclear staining score, H460 ([1]; conc 0.3)	Hoechst 33342 nuclear staining score, H460 ([1]; conc 1)	Hoechst 33342 nuclear staining score, H460 ([1]; conc 3)	Hoechst 33342 nuclear staining score, HeLa ([1]; conc 0.1)	Hoechst 33342 nuclear staining score, HeLa ([1]; conc 0.3)	Hoechst 33342 nuclear staining score, HeLa ([1]; conc 1)	Hoechst 33342 nuclear staining score, HeLa ([1]; conc 3)	Hoechst 33342 nuclear staining score, Jily ([1]; conc 0.1)	Hoechst 33342 nuclear staining score, Jily ([1]; conc 0.3)	Hoechst 33342 nuclear staining score, Jily ([1]; conc 1)	Hoechst 33342 nuclear staining score, Jily ([1]; conc 3)	Hoechst 33342 nuclear staining score, Jurkat ([1]; conc 0.1)	Hoechst 33342 nuclear staining score, Jurkat ([1]; conc 0.3)	Hoechst 33342 nuclear staining score, Jurkat ([1]; conc 1)	Hoechst 33342 nuclear staining score, Jurkat ([1]; conc 3)	Hoechst 33342 nuclear staining score, MRC5 ([1]; conc 0.1)	Hoechst 33342 nuclear staining score, MRC5 ([1]; conc 0.3)	also measured
COc1cc(-c2cc(-c3cncc(C(=O)NC(C)CO)c3)cn2S(=O)(=O)c2ccc(C)cc2)cc(OC)c1OC.Cl (stereo not shown) [Example 63]	> 6.00	> 6.00	0	0	0	0	0	0	0	2 (strong activity comprising more than 50% of the cells)	0	0	0	0	0	0	2 (strong activity comprising more than 50% of the cells)	2 (strong activity comprising more than 50% of the cells)	0	0	Hoechst 33342 nuclear staining score, MRC5 ([1]; conc 1): 0; Hoechst 33342 nuclear staining score, MRC5 ([1]; conc 3): 0; Hoechst 33342 nuclear staining score, PBLs ([1]; conc 0.1): 0; Hoechst 33342 nuclear staining score, PBLs ([1]; conc 0.3): 0; Hoechst 33342 nuclear staining score, PBLs ([1]; conc 1): 0; Hoechst 33342 nuclear staining score, PBLs ([1]; conc 3): 0; pIC50 (Jurkat): > 6.00; pIC50 (HeLa): > 6.00
COc1cc(-c2cc(-c3cncc(C(=O)NCCN4CCOCC4)c3)cn2S(=O)(=O)c2ccc(C)cc2)cc(OC)c1OC.Cl [Example 64]	> 6.00	> 6.00	0	0	2 (strong activity comprising more than 50% of the cells)	2 (strong activity comprising more than 50% of the cells)	0	0	2 (strong activity comprising more than 50% of the cells)	2 (strong activity comprising more than 50% of the cells)	0	0	2 (strong activity comprising more than 50% of the cells)	2 (strong activity comprising more than 50% of the cells)	0	0	2 (strong activity comprising more than 50% of the cells)	2 (strong activity comprising more than 50% of the cells)	0	0	Hoechst 33342 nuclear staining score, MRC5 ([1]; conc 1): 2 (strong activity comprising more than 50% of the cells); Hoechst 33342 nuclear staining score, MRC5 ([1]; conc 3): 2 (strong activity comprising more than 50% of the cells); Hoechst 33342 nuclear staining score, PBLs ([1]; conc 0.1): 0; Hoechst 33342 nuclear staining score, PBLs ([1]; conc 0.3): 0; Hoechst 33342 nuclear staining score, PBLs ([1]; conc 1): 0; Hoechst 33342 nuclear staining score, PBLs ([1]; conc 3): 0; pIC50 (Jurkat): > 6.00; pIC50 (HeLa): > 6.00
COCCCNC(=O)c1cncc(-c2cc(-c3cc(OC)c(OC)c(OC)c3)n(S(=O)(=O)c3ccc(C)cc3)c2)c1.Cl [Example 65]	> 6.00	> 6.00	0	0	2 (strong activity comprising more than 50% of the cells)	2 (strong activity comprising more than 50% of the cells)	0	0	0	2 (strong activity comprising more than 50% of the cells)	0	0	2 (strong activity comprising more than 50% of the cells)	2 (strong activity comprising more than 50% of the cells)	0	0	2 (strong activity comprising more than 50% of the cells)	2 (strong activity comprising more than 50% of the cells)	0	0	Hoechst 33342 nuclear staining score, MRC5 ([1]; conc 1): 2 (strong activity comprising more than 50% of the cells); Hoechst 33342 nuclear staining score, MRC5 ([1]; conc 3): 2 (strong activity comprising more than 50% of the cells); Hoechst 33342 nuclear staining score, PBLs ([1]; conc 0.1): 0; Hoechst 33342 nuclear staining score, PBLs ([1]; conc 0.3): 0; Hoechst 33342 nuclear staining score, PBLs ([1]; conc 1): 0; Hoechst 33342 nuclear staining score, PBLs ([1]; conc 3): 0; pIC50 (Jurkat): > 6.00; pIC50 (HeLa): > 6.00
COc1cc(-c2cc(CNc3ccc(-c4nnn[nH]4)cc3)cn2S(=O)(=O)c2ccc(C)cc2)cc(OC)c1OC [Example 73]	< 6.00	< 6.00	0	0	0	2 (strong activity comprising more than 50% of the cells)	0	0	0	0	0	0	0	1 (weak activity comprising less than 50% of the cells)	0	0	0	2 (strong activity comprising more than 50% of the cells)	0	0	Hoechst 33342 nuclear staining score, MRC5 ([1]; conc 1): 0; Hoechst 33342 nuclear staining score, MRC5 ([1]; conc 3): 0; Hoechst 33342 nuclear staining score, PBLs ([1]; conc 0.1): 0; Hoechst 33342 nuclear staining score, PBLs ([1]; conc 0.3): 0; Hoechst 33342 nuclear staining score, PBLs ([1]; conc 1): 0; Hoechst 33342 nuclear staining score, PBLs ([1]; conc 3): 0; pIC50 (Jurkat): < 6.00; pIC50 (HeLa): < 6.00
